{"source": "patent US20080070961A1", "about": "“Polymorphs of N-(2-acetyl-4,6-dimethylphenyl)-3-{[(3,4 dimethyl-5-isoxazolyl)-amino]sulfonyl}-2-thiophene-carboxamide” (priority 2006, published 2008)", "key": {"[1]": {"test": "Interconversion experiments (slurries of two forms, XRPD)", "assay_type": "physicochemical", "experimental": "Interconversion experiments were carried out by making slurries containing two forms of N-(2-acetyl-4,6-dimethylphenyl)-3 -{[(3,4-dimethyl-5-isoxazolyl)amino]-sulfonyl}-2-thiophenecaboxamide in saturated toluene, methanol/water, or alcohol solutions. The slurries were agitated for various time periods at either ambient temperature or at 45° C. The insoluble solids were recovered by filtration and analyzed using XRPD."}, "[2]": {"test": "Grinding experiments (mortar and pestle, XRPD)", "assay_type": "physicochemical", "experimental": "N-(2-acetyl-4,6-dimethylphenyl)-3-{[(3 ,4-dimethyl-5-isoxazolyl)amino]-sulfonyl}-2-thiophenecaboxamide material was ground by hand with a mortar and pestle for 30 sec, 1, 2, and 5 minutes. The samples were then analyzed by XRPD."}, "[3]": {"test": "Approximate solubilities of Form A in various solvents at ambient temperature", "assay_type": "physicochemical", "conditions": "for solubility: thermodynamic from solid, approximate", "experimental": "The approximate solubilities were estimated from experiments based on the total solvent used to give a solution. The actual solubilities may be greater than those calculated because of the use of too-large solvent aliquots or a slow rate of dissolution. […] If the solid dissolved before the whole aliquot of solvent was added the solubility is listed as “greater than”."}, "[4]": {"test": "Moisture sorption/desorption", "assay_type": "physicochemical", "conditions": "for XRPD Results after the moisture sorption/desorption experiment: sorption 5 to 95% RH, desorption 95 to 5% RH", "experimental": "The moisture sorption/desorption data was collected on a VT SGA-100 moisture balance system. For sorption isotherms, a sorption range of 5 to 95% relative humidity (RH) and a desorption range of 95 to 5% RH in 10% RH increments were used for analysis. The sample was not dried prior to analysis. Equilibrium criteria used for analysis was less than 0.0100% weight change in 5 minutes with a maximum equilibration time of 3 hours if the weight criterion was not met. Data was not corrected for the initial moisture content of the samples."}, "[5]": {"test": "Stress studies (humidity / temperature, XRPD)", "assay_type": "physicochemical", "experimental": "Samples of N-(2-acetyl-4,6-dimethylphenyl)-3-{[(3,4-dimethyl-5-isoxazolyl)amino]-sulfonyl}-2-thiophenecaboxamide were stressed at 22, 58, 75, and 93% RH under ambient temperature for 3 days. One sample was also placed in a 40 ° C. oven for 11 days. Samples of amorphous material were also placed in a 40 ° C. oven for 36 days or in a 70 ° C. oven for 4 days. The solids were then analyzed by XRPD."}, "[6]": {"test": "Solubility of Forms A, C and E in ethanol (gravimetric)", "conditions": "for stability of the forms (order, based on the solubility data): ethanol solubility data; for AVERAGE SOLUBILITY / solubility at 30 min / solubility at 60 min / XRPD of remaining solid after the solubility experiment (form conversion) / relative solubility of the forms: ethanol; for solubility at 30 min / solubility at 60 min: organic solvent or mixture, thermodynamic from solid, AVERAGE SOLUBILITY; for XRPD of remaining solid after the solubility experiment (form conversion) / relative solubility of the forms: various temperatures", "procedure": "(§1) Saturated solutions of this compound in ethanol were prepared and each solution was heated to either 25, 27, 35, 40 or 50° C.' and stirred for 30 minutes. The samples were filtered into a receiving flask and were heated at the same temperatures and stirred for another 30 minutes. Samples were removed from these flasks and were filtered into a tared vial. The remaining solution was heated and stirred for another 30 minutes. Samples were again removed from these flasks and were filtered into another tared vial. The solvents in the tared vials were removed using a rotary evaporator and the weights of the solids in the tared vials were recorded and were used to calculate solubility.\n(§2) The solubilitites reported were determined gravimetrically, therefore, fluctuations in the data are possible."}, "physchem": {"test": "physchem", "conditions": "organic solvent or mixture, thermodynamic from solid, AVERAGE SOLUBILITY", "procedure": "as §1, §2"}}, "note": "“Also recorded” adds a separate entry of the source.", "data": [{"smiles": "CC(=O)c1cc(C)cc(C)c1NC(=O)c1sccc1S(=O)(=O)Nc1onc(C)c1C", "note": "[A vs. C]", "values": [{"measurement": "XRPD Results after slurry", "setting": "[1]; 1:1 methanol:water, 12 days", "value": "A + C, SS"}, {"measurement": "XRPD Results after slurry", "setting": "[1]; toluene RT, 12 days", "value": "A + C"}, {"measurement": "XRPD Results after slurry", "setting": "[1]; toluene, 45° C., 5 days", "value": "A + C"}]}, {"smiles": "CC(=O)c1cc(C)cc(C)c1NC(=O)c1sccc1S(=O)(=O)Nc1onc(C)c1C", "note": "[A vs. E]", "values": [{"measurement": "XRPD Results after slurry", "setting": "[1]; ethanol, 20 days", "value": "A + E(min)"}, {"measurement": "XRPD Results after slurry", "setting": "[1]; ethanol, 27 days", "value": "A + pk 4°"}, {"measurement": "XRPD Results after slurry", "setting": "[1]; toluene RT, 20 days", "value": "A, SS"}, {"measurement": "XRPD Results after slurry", "setting": "[1]; toluene, 45° C., 5 days", "value": "A(PO)"}]}, {"smiles": "CC(=O)c1cc(C)cc(C)c1NC(=O)c1sccc1S(=O)(=O)Nc1onc(C)c1C", "note": "[A(PO)]", "values": [{"measurement": "XRPD Pattern after grinding", "setting": "[2]; grind time 2 min", "value": "C + E"}]}, {"smiles": "CC(=O)c1cc(C)cc(C)c1NC(=O)c1sccc1S(=O)(=O)Nc1onc(C)c1C", "note": "[C vs. E]", "values": [{"measurement": "XRPD Results after slurry", "setting": "[1]; toluene, 45° C., 5 days", "value": "A + C"}]}, {"smiles": "CC(=O)c1cc(C)cc(C)c1NC(=O)c1sccc1S(=O)(=O)Nc1onc(C)c1C", "note": "[Form A, N-(2-acetyl-4,6-dimethylphenyl)-3-{[(3,4dimethyl-5-isoxazolyl)-amino]sulfonyl}-2-thiophenecarboxamide]", "values": [{"measurement": "solubility", "setting": "[3]; N,N-dimethylformamide, organic solvent or mixture", "value": 250, "unit": "mg/mL"}, {"measurement": "solubility", "setting": "[3]; acetone, organic solvent or mixture", "value": 87, "unit": "mg/mL"}, {"measurement": "solubility", "setting": "[3]; acetonitrile, organic solvent or mixture", "value": 72, "unit": "mg/mL"}, {"measurement": "solubility", "setting": "[3]; dichloromethane, organic solvent or mixture", "value": 135, "unit": "mg/mL"}, {"measurement": "solubility", "setting": "[3]; diethyl ether, organic solvent or mixture", "value": "< 9", "unit": "mg/mL"}, {"measurement": "solubility (in words)", "setting": "[3]; diethyl other, hexanes, propanol and water", "value": "sparingly soluble"}, {"measurement": "solubility", "setting": "[3]; dimethyl sulfoxide, organic solvent or mixture", "value": 144, "unit": "mg/mL"}, {"measurement": "solubility", "setting": "[3]; ethanol, organic solvent or mixture", "value": 9, "unit": "mg/mL"}, {"measurement": "solubility", "setting": "[3]; ethyl acetate, organic solvent or mixture", "value": 21, "unit": "mg/mL"}, {"measurement": "solubility", "setting": "[3]; hexanes, organic solvent or mixture", "value": "< 9", "unit": "mg/mL"}, {"measurement": "solubility", "setting": "[3]; isopropanol, organic solvent or mixture", "value": "< 10", "unit": "mg/mL"}, {"measurement": "solubility", "setting": "[3]; methanol, organic solvent or mixture", "value": 21, "unit": "mg/mL"}, {"measurement": "solubility", "setting": "[3]; propanol, organic solvent or mixture", "value": "< 9", "unit": "mg/mL"}, {"measurement": "solubility", "setting": "[3]; toluene, organic solvent or mixture", "value": 19, "unit": "mg/mL"}, {"measurement": "solubility", "setting": "[3]; water", "value": "< 8", "unit": "mg/mL"}, {"measurement": "hygroscopicity (based on moisture sorption/desorption data)", "setting": "[4]", "value": "non-hygroscopic"}, {"measurement": "Moisture Balance Results: weight loss at 5% RH", "setting": "[4]", "value": "<0.1% weight loss at 5% RH,"}, {"measurement": "Moisture Balance Results: total weight gain at 95% RH", "setting": "[4]", "value": "<0.1% total weight gain at 95% RH"}, {"measurement": "XRPD Results after the moisture sorption/desorption experiment", "setting": "[4]", "value": "remained Form A"}, {"measurement": "form after stress, all conditions of Table 10", "setting": "[5]; various conditions (22-93% RH 3 d; 40° C. 11 d)", "value": "remained Form A"}, {"measurement": "XRPD Pattern after grinding", "setting": "[2]; grind time 1 min", "value": "A, SS"}, {"measurement": "crystallinity upon grinding", "setting": "[2]; ground for up to 5 minutes, mortar and pestle", "value": "loses some crystallinity"}, {"measurement": "stability of the forms (order, based on the solubility data)", "setting": "[6]", "value": "Form A >Form C >Form E"}, {"measurement": "AVERAGE SOLUBILITY", "setting": "[6]; 25 °C, 30 min", "value": 9.5, "unit": "mg/mL"}, {"measurement": "AVERAGE SOLUBILITY", "setting": "[6]; 25 °C, 60 min", "value": 10.6, "unit": "mg/mL"}, {"measurement": "AVERAGE SOLUBILITY", "setting": "[6]; 40 °C, 30 min", "value": 17.3, "unit": "mg/mL"}, {"measurement": "AVERAGE SOLUBILITY", "setting": "[6]; 40 °C, 60 min", "value": 18.1, "unit": "mg/mL"}, {"measurement": "solubility at 30 min", "setting": "[6]; 50 °C, 30 min", "value": 40.8, "unit": "mg/mL"}, {"measurement": "solubility at 60 min", "setting": "[6]; 50 °C, 60 min", "value": 36.7, "unit": "mg/mL"}, {"measurement": "XRPD of remaining solid after the solubility experiment (form conversion)", "setting": "[6]", "value": "conversion to another form did not occur"}, {"measurement": "relative solubility of the forms", "setting": "[6]", "value": "less soluble form; also recorded: least soluble"}]}, {"smiles": "CC(=O)c1cc(C)cc(C)c1NC(=O)c1sccc1S(=O)(=O)Nc1onc(C)c1C", "note": "[Form C, N-(2-acetyl-4,6-dimethylphenyl)-3-{[(3,4dimethyl-5-isoxazolyl)-amino]sulfonyl}-2-thiophenecarboxamide]", "values": [{"measurement": "hygroscopicity (based on moisture sorption/desorption data)", "setting": "[4]", "value": "non-hygroscopic"}, {"measurement": "Moisture Balance Results: weight loss at 5% RH", "setting": "[4]", "value": "<0.1% weight loss at 5% RH,"}, {"measurement": "Moisture Balance Results: total weight gain at 95% RH", "setting": "[4]", "value": "<0.1% total weight gain at 95% RH"}, {"measurement": "XRPD Results after the moisture sorption/desorption experiment", "setting": "[4]", "value": "remained Form C"}, {"measurement": "XRPD Pattern after grinding", "setting": "[2]; grind time 2 min", "value": "remained Form C"}, {"measurement": "XRPD Results after slurry", "setting": "[1]; ethanol, 16 days", "value": "remained the same form"}, {"measurement": "stability of the forms (order, based on the solubility data)", "setting": "[6]", "value": "Form A >Form C >Form E"}, {"measurement": "solubility at 30 min", "setting": "[6]; 25 °C, 30 min", "value": 16.1, "unit": "mg/mL"}, {"measurement": "solubility at 60 min", "setting": "[6]; 25 °C, 60 min", "value": 13.2, "unit": "mg/mL"}, {"measurement": "solubility at 30 min", "setting": "[6]; 40 °C, 30 min", "value": 28.3, "unit": "mg/mL"}, {"measurement": "solubility at 60 min", "setting": "[6]; 40 °C, 60 min", "value": 27.4, "unit": "mg/mL"}, {"measurement": "AVERAGE SOLUBILITY", "setting": "[6]; 50 °C, 30 min", "value": 35.6, "unit": "mg/mL"}, {"measurement": "AVERAGE SOLUBILITY", "setting": "[6]; 50 °C, 60 min", "value": 45.1, "unit": "mg/mL"}, {"measurement": "XRPD of remaining solid after the solubility experiment (form conversion)", "setting": "[6]", "value": "did not change form; also recorded: did not convert"}, {"measurement": "relative solubility of the forms", "setting": "[6]", "value": "higher solubility than Form A"}]}, {"smiles": "CC(=O)c1cc(C)cc(C)c1NC(=O)c1sccc1S(=O)(=O)Nc1onc(C)c1C", "note": "[Form E, N-(2-acetyl-4,6-dimethylphenyl)-3-{[(3,4dimethyl-5-isoxazolyl)-amino]sulfonyl}-2-thiophenecarboxamide]", "values": [{"measurement": "hygroscopicity (based on moisture sorption/desorption data)", "setting": "[4]", "value": "non-hygroscopic"}, {"measurement": "Moisture Balance Results: weight loss at 5% RH", "setting": "[4]", "value": "<0.1% weight loss at 5% RH,"}, {"measurement": "Moisture Balance Results: total weight gain at 95% RH", "setting": "[4]", "value": "0.15% total weight gain at 95% RH"}, {"measurement": "XRPD Results after the moisture sorption/desorption experiment", "setting": "[4]", "value": "remained Form E"}, {"measurement": "weight loss or gain during the moisture sorption/desorption experiment", "setting": "[4]; whole experiment", "value": "< 0.2", "unit": "%"}, {"measurement": "solubility at 30 min", "setting": "physchem; 27 °C", "value": 12.7, "unit": "mg/mL"}, {"measurement": "solubility at 60 min", "setting": "physchem; 27 °C", "value": 11, "unit": "mg/mL"}, {"measurement": "solubility at 30 min", "setting": "physchem; 35 °C", "value": 17.7, "unit": "mg/mL"}, {"measurement": "solubility at 60 min", "setting": "physchem; 35 °C", "value": 18.3, "unit": "mg/mL"}, {"measurement": "solubility at 30 min", "setting": "physchem; 50 °C", "value": 40.8, "unit": "mg/mL"}, {"measurement": "solubility at 60 min", "setting": "physchem; 50 °C", "value": 39.7, "unit": "mg/mL"}]}, {"smiles": "CC(=O)c1cc(C)cc(C)c1NC(=O)c1sccc1S(=O)(=O)Nc1onc(C)c1C", "note": "[amorphous, N-(2-acetyl-4,6-dimethylphenyl)-3-{[(3,4dimethyl-5-isoxazolyl)-amino]sulfonyl}-2-thiophenecarboxamide]", "values": [{"measurement": "Moisture Balance Results: weight loss at 5% RH", "setting": "[4]", "value": "<0.1% weight loss at 5% RH,"}, {"measurement": "XRPD Results after the moisture sorption/desorption experiment", "setting": "[4]", "value": "remained amorphous; also recorded: does not recrystallize"}, {"measurement": "XRPD Pattern after stress", "setting": "[5]; 40° C., 36 d", "value": "amorphous"}, {"measurement": "XRPD Pattern after stress", "setting": "[5]; 70° C., 4 d", "value": "a mixture of Forms E and C"}, {"measurement": "XRPD Pattern after stress", "setting": "[5]; ambient, 92 d (approx. 3 months)", "value": "Forms C and E"}]}]}
